Assay results: PubChem BioAssay (NCI)
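Cultured in 96-well plates, cells were exposed to test compound for 48 hours across five concentrations. The concentration for full growth arrest is given as TGI.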

Key:
Assay in all cases: NCI-60 cell line screen, 48 h
SF-268 CNS = system: SF-268 CNS
SK-MEL-2 melanoma = system: SK-MEL-2 melanoma
HCT-15 colon = system: HCT-15 colon
OVCAR-5 ovarian = system: OVCAR-5 ovarian
SR leukemia = system: SR leukemia
OVCAR-4 ovarian = system: OVCAR-4 ovarian
MCF7 breast = system: MCF7 breast
SK-OV-3 ovarian = system: SK-OV-3 ovarian
PC-3 prostate = system: PC-3 prostate
SNB-19 CNS = system: SNB-19 CNS
MDA-MB-435 = system: MDA-MB-435
U251 CNS = system: U251 CNS
CCRF-CEM leukemia = system: CCRF-CEM leukemia
HS 578T breast = system: HS 578T breast
UACC-257 melanoma = system: UACC-257 melanoma
HT29 colon = system: HT29 colon
A498 renal = system: A498 renal
IGROV1 ovarian = system: IGROV1 ovarian
OVCAR-8 ovarian = system: OVCAR-8 ovarian
SNB-75 CNS = system: SNB-75 CNS
MALME-3M melanoma = system: MALME-3M melanoma
KM12 colon = system: KM12 colon
TK-10 renal = system: TK-10 renal
MOLT-4 leukemia = system: MOLT-4 leukemia
M14 melanoma = system: M14 melanoma
SF-539 CNS = system: SF-539 CNS
NCI-H226 lung = system: NCI-H226 lung
NCI/ADR-RES ovarian = system: NCI/ADR-RES ovarian
BT-549 breast = system: BT-549 breast
HL-60(TB) leukemia = system: HL-60(TB) leukemia
K-562 leukemia = system: K-562 leukemia
RPMI-8226 leukemia = system: RPMI-8226 leukemia
SK-MEL-28 melanoma = system: SK-MEL-28 melanoma
HOP-62 NSCLC = system: HOP-62 NSCLC
ACHN renal = system: ACHN renal
OVCAR-3 ovarian = system: OVCAR-3 ovarian
UO-31 renal = system: UO-31 renal
NCI-H23 lung = system: NCI-H23 lung
NCI-H460 lung = system: NCI-H460 lung
SF-295 CNS = system: SF-295 CNS
SW-620 colon = system: SW-620 colon
UACC-62 melanoma = system: UACC-62 melanoma
DU-145 prostate = system: DU-145 prostate
MDA-N = system: MDA-N
EKVX NSCLC = system: EKVX NSCLC
786-0 renal = system: 786-0 renal
RXF 393 renal = system: RXF 393 renal
LOX IMVI melanoma = system: LOX IMVI melanoma
MDA-MB-231 breast = system: MDA-MB-231 breast
A549 NSCLC = system: A549 NSCLC
NCI-H522 lung = system: NCI-H522 lung
HCT-116 colon = system: HCT-116 colon
COLO 205 colon = system: COLO 205 colon
SN12C renal = system: SN12C renal
HCC-2998 colon = system: HCC-2998 colon
T-47D breast = system: T-47D breast
CAKI-1 renal = system: CAKI-1 renal
SK-MEL-5 melanoma = system: SK-MEL-5 melanoma
HOP-92 NSCLC = system: HOP-92 NSCLC

**Q.** What does the source list for CCCNC(=O)c1cc(NC(=O)c2cc(NC(=O)/C=C/c3ccccc3)c(OC)c(OC)c2)c(OC)c(OC)c1?
**A.** TGI (SF-268 CNS): 8.68 µM; TGI (SK-MEL-2 melanoma): 31.2 µM; TGI (HCT-15 colon): > 100 µM; TGI (OVCAR-5 ovarian): 57.1 µM; TGI (SR leukemia): > 100 µM; TGI (OVCAR-4 ovarian): 8.05 µM; TGI (MCF7 breast): 28.5 µM; TGI (SK-OV-3 ovarian): 25.1 µM; TGI (PC-3 prostate): 33.5 µM; TGI (SNB-19 CNS): 21.6 µM; TGI (MDA-MB-435): 66.5 µM; TGI (U251 CNS): 13.9 µM; TGI (CCRF-CEM leukemia): > 100 µM; TGI (HS 578T breast): 6.18 µM; TGI (UACC-257 melanoma): 52.2 µM; TGI (HT29 colon): 66.5 µM; TGI (A498 renal): 30.8 µM; TGI (IGROV1 ovarian): 31.7 µM; TGI (OVCAR-8 ovarian): 17 µM; TGI (SNB-75 CNS): 7.76 µM; TGI (MALME-3M melanoma): 8.74 µM; TGI (KM12 colon): 41.8 µM; TGI (TK-10 renal): 40.1 µM; TGI (MOLT-4 leukemia): > 100 µM; TGI (M14 melanoma): > 100 µM; TGI (SF-539 CNS): 20.4 µM; TGI (NCI-H226 lung): 0.17 µM; TGI (NCI/ADR-RES ovarian): 56 µM; TGI (BT-549 breast): 53.4 µM; TGI (HL-60(TB) leukemia): > 100 µM; TGI (K-562 leukemia): > 100 µM; TGI (RPMI-8226 leukemia): > 100 µM; TGI (SK-MEL-28 melanoma): 67.7 µM; TGI (HOP-62 NSCLC): 19.4 µM; TGI (ACHN renal): 36.8 µM; TGI (OVCAR-3 ovarian): 17.9 µM; TGI (UO-31 renal): 20.7 µM; TGI (NCI-H23 lung): > 100 µM; TGI (NCI-H460 lung): 82.5 µM; TGI (SF-295 CNS): 11.2 µM; TGI (SW-620 colon): > 100 µM; TGI (UACC-62 melanoma): 0.597 µM; TGI (DU-145 prostate): > 100 µM; TGI (MDA-N): > 100 µM; TGI (EKVX NSCLC): 54.1 µM; TGI (786-0 renal): 18.6 µM; TGI (RXF 393 renal): 8.31 µM; TGI (LOX IMVI melanoma): 8.35 µM; TGI (MDA-MB-231 breast): 6.27 µM; TGI (A549 NSCLC): 23.9 µM; TGI (NCI-H522 lung): 23.1 µM; TGI (HCT-116 colon): > 100 µM; TGI (COLO 205 colon): > 100 µM; TGI (SN12C renal): 0.879 µM

**Q.** What does the source list for [N-]=[N+]=Nc1c(C=O)c(=O)n2c3c(cccc13)CCC2?
**A.** TGI (SF-268 CNS): 35.4 µM; TGI (HCT-15 colon): 11.5 µM; TGI (OVCAR-5 ovarian): 21 µM; TGI (OVCAR-4 ovarian): 8.49 µM; TGI (MCF7 breast): 10.6 µM; TGI (SK-OV-3 ovarian): 33.9 µM; TGI (PC-3 prostate): 27.2 µM; TGI (SNB-19 CNS): 42.1 µM; TGI (MDA-MB-435): 20.1 µM; TGI (U251 CNS): 19.5 µM; TGI (CCRF-CEM leukemia): 6.44 µM; TGI (HS 578T breast): 57.3 µM; TGI (UACC-257 melanoma): 10 µM; TGI (HT29 colon): > 70.2 µM; TGI (A498 renal): 28.8 µM; TGI (IGROV1 ovarian): 25 µM; TGI (OVCAR-8 ovarian): 17.8 µM; TGI (SNB-75 CNS): 29.1 µM; TGI (MALME-3M melanoma): 4.26 µM; TGI (KM12 colon): 34.6 µM; TGI (TK-10 renal): 10.1 µM; TGI (MOLT-4 leukemia): 4.26 µM; TGI (HCC-2998 colon): 33.6 µM; TGI (T-47D breast): 15.5 µM; TGI (M14 melanoma): 3.9 µM; TGI (SF-539 CNS): 36.1 µM; TGI (NCI-H226 lung): 43.7 µM; TGI (NCI/ADR-RES ovarian): > 45.6 µM; TGI (BT-549 breast): 6.07 µM; TGI (HL-60(TB) leukemia): > 100 µM; TGI (K-562 leukemia): 13 µM; TGI (RPMI-8226 leukemia): > 22.3 µM; TGI (SK-MEL-28 melanoma): 27.2 µM; TGI (HOP-62 NSCLC): 35.2 µM; TGI (ACHN renal): 11.5 µM; TGI (OVCAR-3 ovarian): 6.27 µM; TGI (UO-31 renal): 6.39 µM; TGI (CAKI-1 renal): 16.2 µM; TGI (NCI-H23 lung): 12.2 µM; TGI (NCI-H460 lung): 47.2 µM; TGI (SF-295 CNS): > 76.6 µM; TGI (SW-620 colon): 2.87 µM; TGI (UACC-62 melanoma): 26.5 µM; TGI (DU-145 prostate): 21 µM; TGI (SK-MEL-5 melanoma): 27.5 µM; TGI (MDA-N): 15.3 µM; TGI (EKVX NSCLC): 50.5 µM; TGI (786-0 renal): 8.83 µM; TGI (RXF 393 renal): 3.76 µM; TGI (LOX IMVI melanoma): 25.4 µM; TGI (MDA-MB-231 breast): 32.1 µM; TGI (A549 NSCLC): 40.9 µM; TGI (HOP-92 NSCLC): 4.5 µM; TGI (HCT-116 colon): 10.9 µM; TGI (COLO 205 colon): 4.63 µM; TGI (SN12C renal): 37.5 µM
